Experiments:
[1] = system: sst (non-selective) Somatostatin receptor; assay: Receptor binding
[2] = biological target: M2 Muscarinic receptor (Homo sapiens, UniProt P08172); assay: Receptor binding
[3] = biological target: SST5 (Homo sapiens, UniProt P35346); assay: Receptor functional assay; format: biochemical
Procedure: (§1) The binding IC50, functional effect, and functional EC50 of TA1-1B on exemplary receptors was determined.

[4] = biological target: T1, CCK1/CCKA (Homo sapiens, UniProt P32238); assay: Receptor functional assay; format: biochemical
T1 sequence (P32238 1-428): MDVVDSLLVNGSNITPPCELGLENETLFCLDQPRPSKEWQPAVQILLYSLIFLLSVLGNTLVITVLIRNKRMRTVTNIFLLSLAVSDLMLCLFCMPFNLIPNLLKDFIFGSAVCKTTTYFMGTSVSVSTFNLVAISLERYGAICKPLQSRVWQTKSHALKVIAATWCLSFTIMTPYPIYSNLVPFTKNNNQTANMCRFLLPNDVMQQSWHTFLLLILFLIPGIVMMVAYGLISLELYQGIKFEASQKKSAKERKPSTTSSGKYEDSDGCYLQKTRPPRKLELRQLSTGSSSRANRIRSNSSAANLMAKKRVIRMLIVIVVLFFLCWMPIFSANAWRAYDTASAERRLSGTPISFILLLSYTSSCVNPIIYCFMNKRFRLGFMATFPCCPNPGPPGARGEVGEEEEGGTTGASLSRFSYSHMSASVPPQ
Procedure: as §1

[5] = biological target: SST4 (Homo sapiens, UniProt P31391); assay: Receptor functional assay; format: biochemical
Sequence of SST4 (P31391 whole entry, species assumed): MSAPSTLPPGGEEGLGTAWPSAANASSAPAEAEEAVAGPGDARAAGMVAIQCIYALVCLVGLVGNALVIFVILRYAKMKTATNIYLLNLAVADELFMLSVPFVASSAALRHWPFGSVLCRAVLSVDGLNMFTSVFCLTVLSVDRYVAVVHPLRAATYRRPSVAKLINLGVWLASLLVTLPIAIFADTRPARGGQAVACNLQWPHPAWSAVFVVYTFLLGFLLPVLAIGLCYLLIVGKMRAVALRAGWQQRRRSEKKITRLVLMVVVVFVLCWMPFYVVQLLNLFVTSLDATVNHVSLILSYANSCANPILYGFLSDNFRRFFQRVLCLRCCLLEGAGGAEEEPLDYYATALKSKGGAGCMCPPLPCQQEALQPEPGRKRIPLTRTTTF
Procedure: as §1

[6] = biological target: T2, CCK2/CCKB (Homo sapiens, UniProt P32239); assay: Receptor functional assay; format: biochemical
T2 sequence (P32239 1-447): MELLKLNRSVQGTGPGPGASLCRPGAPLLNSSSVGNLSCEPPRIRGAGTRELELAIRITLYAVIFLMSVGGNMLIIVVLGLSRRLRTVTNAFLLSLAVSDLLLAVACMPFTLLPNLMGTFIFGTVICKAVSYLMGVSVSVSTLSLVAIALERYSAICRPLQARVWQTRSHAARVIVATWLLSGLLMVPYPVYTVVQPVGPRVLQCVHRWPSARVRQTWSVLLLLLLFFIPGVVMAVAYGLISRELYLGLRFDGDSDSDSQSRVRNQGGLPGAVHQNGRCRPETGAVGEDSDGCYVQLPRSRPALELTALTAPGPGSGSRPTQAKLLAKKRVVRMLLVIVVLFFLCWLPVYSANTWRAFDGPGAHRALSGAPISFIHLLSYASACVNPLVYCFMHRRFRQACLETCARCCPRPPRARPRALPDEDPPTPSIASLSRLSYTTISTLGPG
Procedure: as §1

[7] = biological target: SST1 (Homo sapiens, UniProt P30872); assay: Receptor functional assay; format: biochemical
Sequence of SST1 (P30872 whole entry, species assumed): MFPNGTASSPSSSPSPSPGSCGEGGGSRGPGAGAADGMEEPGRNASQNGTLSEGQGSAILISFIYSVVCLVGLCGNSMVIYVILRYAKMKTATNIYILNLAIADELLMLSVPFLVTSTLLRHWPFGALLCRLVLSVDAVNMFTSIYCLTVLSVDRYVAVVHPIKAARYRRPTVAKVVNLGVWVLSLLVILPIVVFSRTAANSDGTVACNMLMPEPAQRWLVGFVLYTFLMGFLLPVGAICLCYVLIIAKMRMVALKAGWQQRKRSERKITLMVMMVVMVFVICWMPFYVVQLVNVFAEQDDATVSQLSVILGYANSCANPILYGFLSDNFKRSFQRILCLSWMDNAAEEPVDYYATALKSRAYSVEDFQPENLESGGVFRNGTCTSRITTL
Procedure: as §1

[8] = system: bone marrow cells (BMCs); assay: RNA synthesis and cell viability of bone marrow cells from treated rats; format: in vivo; settings: 10 mg/kg daily for 5 days, BMCs isolated 24 hours after last dose
Procedure: Rats were treated with 10 milligrams per kilogram of Compound TA1-1B daily for five (5) days. Twenty-four (24) hours after the last dose the bone marrow was isolated, and bone marrow cells (BMCs) were tested for RNA synthesis activity and cell viability
The following process was utilized to measure total RNA synthesis. For animals treated with compound TA1-1B, BMCs were isolated and plated overnight at 100,000 cells per mL. Next day cells were incubated for one hour with 5 μCi of [^3H]-uridine. To measure total RNA synthesis, total RNA from treated cells was isolated with a RNease kit (QIAGEN), levels of total RNA were assessed with Ribogreen reagent (Invitrogen) and the newly synthesized tritiated RNA was measured in a scintillation Counter (Perkin Elmer) in a tritium channel.
The following process was utilized to measure cell viability, which involves the use of an Alamar Blue dye. Cells are counted using a hemocytometer, and 4,000-5,000 cells (per well) in 100 microliter of medium are seeded into wells 96-well plate. […] Fluorescence is recorded at an excitation wavelength of 544 nm and emission wavelength of 590 nm using a microplate reader. Fluorescence of […] dye is detected and effects of drug treatment on BMC viablity is determined.

[9] = biological target: M1 Muscarinic receptor (Homo sapiens, UniProt P11229); assay: Receptor binding
Sequence of M1 Muscarinic receptor (P11229 whole entry): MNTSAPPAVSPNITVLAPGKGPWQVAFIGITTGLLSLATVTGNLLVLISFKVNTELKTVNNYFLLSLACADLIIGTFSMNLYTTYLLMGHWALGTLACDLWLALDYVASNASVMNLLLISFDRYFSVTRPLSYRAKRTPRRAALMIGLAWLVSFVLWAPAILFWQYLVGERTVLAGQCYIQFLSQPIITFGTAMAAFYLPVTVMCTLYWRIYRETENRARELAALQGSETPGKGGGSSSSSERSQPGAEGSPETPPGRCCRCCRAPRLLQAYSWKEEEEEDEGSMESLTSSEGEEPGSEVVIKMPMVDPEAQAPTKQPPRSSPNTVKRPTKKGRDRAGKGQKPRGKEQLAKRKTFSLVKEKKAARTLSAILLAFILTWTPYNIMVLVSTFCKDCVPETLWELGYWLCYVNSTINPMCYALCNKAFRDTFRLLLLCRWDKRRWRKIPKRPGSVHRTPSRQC

Sequence of SST5 (P35346 whole entry, species assumed): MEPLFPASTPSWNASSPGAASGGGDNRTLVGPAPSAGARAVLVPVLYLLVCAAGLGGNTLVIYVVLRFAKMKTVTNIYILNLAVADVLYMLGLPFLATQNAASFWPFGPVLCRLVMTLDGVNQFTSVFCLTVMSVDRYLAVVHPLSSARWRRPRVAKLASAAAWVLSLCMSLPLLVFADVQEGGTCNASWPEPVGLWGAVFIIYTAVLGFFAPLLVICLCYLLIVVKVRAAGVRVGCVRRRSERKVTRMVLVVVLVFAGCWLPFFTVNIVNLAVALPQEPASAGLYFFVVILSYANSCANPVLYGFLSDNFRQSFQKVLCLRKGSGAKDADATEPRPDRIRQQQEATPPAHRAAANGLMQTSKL
Sequence of M2 Muscarinic receptor (P08172 whole entry): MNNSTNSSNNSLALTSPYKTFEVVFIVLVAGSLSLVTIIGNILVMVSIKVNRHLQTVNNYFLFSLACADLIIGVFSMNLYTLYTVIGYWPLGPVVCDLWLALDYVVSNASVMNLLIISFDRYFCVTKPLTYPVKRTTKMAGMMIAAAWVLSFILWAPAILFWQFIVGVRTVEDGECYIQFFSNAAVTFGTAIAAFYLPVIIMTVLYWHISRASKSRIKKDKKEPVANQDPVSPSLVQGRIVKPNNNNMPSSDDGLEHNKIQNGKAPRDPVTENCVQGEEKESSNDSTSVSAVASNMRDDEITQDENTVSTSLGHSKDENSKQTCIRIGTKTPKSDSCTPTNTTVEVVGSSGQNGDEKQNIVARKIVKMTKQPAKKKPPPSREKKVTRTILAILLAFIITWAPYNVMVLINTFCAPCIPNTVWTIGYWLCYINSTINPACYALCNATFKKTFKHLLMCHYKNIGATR

CN1CCC[C@H]1CCNC(=O)c1cn2c3c(c(N4CCC(c5cnccn5)C4)c(F)cc3c1=O)Oc1cc3ccccc3cc1-2 (stereo partly shown) [TA1-1B]
% inhibition @ 1 uM [1]: 62% | inhibition at 1 µM [2]: 92% | EC50 ([3]; agonist): 4.7 µM | Functional Effect ([3]; response noted at 10 μM): Agonist | EC50 ([4]; antagonist): 1600 nM | Kb ([4]; antagonist): 340 nM | Functional Effect ([4]; response noted at 1 μM): Antagonist | EC50 ([5]; agonist): 9.9 µM | Functional Effect ([5]; response noted at 10 μM): Agonist | EC50 ([6]; antagonist): 9 µM | Kb ([6]; antagonist): 400 nM | Functional Effect ([6]; response noted at 10 μM): Antagonist | EC50 ([7]; agonist): 4.3 µM | Functional Effect ([7]; response noted at 10 μM): Agonist | Toxicity to bone marrow cells (RNA synthesis and cell viability) [8]: not toxic | inhibition at 1 µM [9]: 98%

— patent publication US20080318938A1, “METHODS FOR TREATING ABERRANT CELL PROLIFERATION DISORDERS” (priority 2007, published 2008)
